Test results published in US20200085705A1, “Method of Encapsulating Compounds” (AGENCY FOR SCIENCE, TECHNOLOGY AND RESEARCH, priority 2016, published 2020).

Test: Titration of polyelectrolytes and ICs with MG (zeta potential, Dh, I/c)
Assay type: physicochemical
Details: titration of PAA-b-PEO, PArg and ICs with MG, 10 mM NaCl
Method: Dynamic (DLS) and static (SLS) light scattering measurements were performed with Brookhaven Instruments, 488 nm and 633 nm, 15 W Ion Laser System, equipped with Avalanche Photodiode Detector; DLS measurements were conducted at 90° detection angle. The light scattering titrations were performed with Malvern Zetasizer equipped with auto-titrator, at detection angle of 173°. Samples from loading experiments were analyzed with Shimadzu UV spectrophotometer (UV-3600).
MG was loaded into the ICs by simple mixing the respective solutions at predetermined ratios. FIG. 3 presents the results of titrations of the polyelectrolytes and ICs consisting of these polyelectrolytes with MG. Upon mixing, we observed no change in zeta potential except for slight increase in case of PArg at the beginning of titration. […] We observed small changes in hydrodynamic diameter (DO and normalized scattering intensity (I/c) of the aggregates, indicating bonding. This was later confirmed with NR studies.

**Q.** Which “chargeability of MG (zeta potential upon mixing)” value does the source give for `COc1ccc(O[C@@H]2O[C@H](CO)[C@@H](O)[C@H](O)[C@H]2O)cc1` [MG, 4-methoxyphenyl β-D-glucopyranoside] here?
**A.** not chargeable
